Results reported in PubChem BioAssay (NCI).
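Method: 48-hour compound exposure of cells in 96-well plates, five concentrations, linear interpolation of endpoints. At the GI50, growth is halved. The concentration for full growth arrest is given as TGI.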

Assays:
Test in all cases: inhibition of tumour cell growth, NCI panel, 48 h
[1] = test system: DU-145 prostate
[2] = test system: HCT-116 colon
[3] = test system: IGROV1 ovarian
[4] = test system: M14 melanoma
[5] = test system: NCI-H460 lung
[6] = test system: RXF 393 renal
[7] = test system: SF-295 CNS
[8] = test system: SN12C renal
[9] = test system: SW-620 colon
[10] = test system: U251 CNS

SMILES | GI50 [1] [µM] | TGI [1] [µM] | GI50 [2] [µM] | TGI [2] [µM] | GI50 [3] [µM] | TGI [3] [µM] | GI50 [4] [µM] | TGI [4] [µM] | GI50 [5] [µM] | TGI [5] [µM] | GI50 [6] [µM] | TGI [6] [µM] | GI50 [7] [µM] | TGI [7] [µM] | GI50 [8] [µM] | TGI [8] [µM] | GI50 [9] [µM] | TGI [9] [µM] | GI50 [10] [µM] | TGI [10] [µM]
CC1(C)N=C(N)N=C(N)N1c1ccc(CCCCc2ccccc2)c(Cl)c1 | 0.0577 | 14 | < 0.01 | 1.61 | < 0.0185 | 2.34 | 0.0598 | 8.77 | < 0.0129 | 4.04 | 0.334 | 7.79 | 0.0457 | 14.6 | 0.0521 | 7.02 | < 0.01 | 5.97 | < 0.01 | 1.83
O=c1cc(-c2ccccc2)oc2ccc(OC/C(=N/O)c3ccccc3)cc12 | 1.73 | > 50 | 3.11 | > 50 | 7.62 | > 50 | > 50 | > 50 | 1.97 | 16.9 | 2.46 | 14.8 | 1.25 | 3.34 | 2.79 | 33.9 | 1.74 | > 50 | 2.35 | > 50
N#Cc1c(NC(=O)NCc2ccccc2)sc2c1CCCC2 | 0.801 | > 33.5 | 0.533 | > 100 | 0.749 | > 100 | 0.421 | > 100 | 0.407 | > 100 | 0.481 | 14.1 | 0.549 | 37.7 | 0.813 | > 100 | 0.388 | > 100 | 0.66 | > 81.7
CN(C)c1ccc(/C=C/c2ccnc3c(O)cccc23)cc1 | 0.626 | > 100 | 0.401 | > 100 | 0.389 | > 100 | 0.304 | 1.58 | 0.363 | > 100 | 0.813 | 15.1 | 1.06 | > 100 | 0.529 | > 100 | 0.397 | > 100 | 0.338 | > 100
O=C(/C=C/c1ccco1)c1cc(F)c(Cl)cc1Cl | 19.9 | 44.1 | 14.9 | 31.6 | 17.2 | 41 | 19.5 | 38.4 | 24.2 | 72.4 | 19.1 | 37.7 | 24.3 | 65.9 | 22.9 | 57.5 | 13.1 | 36.3 | 19.3 | 46
COc1cccc(CCC2CCCN(c3cc(C)nc(N)n3)C2)c1 (stereo not given) | 0.326 | 11.2 | 0.484 | 11 | 0.666 | 12.8 | 0.302 | 2.6 | 0.38 | 11.6 | 0.368 | 5.87 | 0.362 | 10.6 | 0.635 | 11.5 | 0.363 | 13.7 | 0.413 | 11.4
CCOC(=O)c1ccc2c(c1)Cc1cc([N+](=O)[O-])ccc1-2 |  | > 100 |  | > 100 |  | > 100 |  | > 100 |  | > 100 |  | 55.5 |  | > 100 |  | > 100 |  | > 100 |  | > 100
COc1cc2nccc(Oc3ccc(NC(=O)NC4CC4)c(Cl)c3)c2cc1C(N)=O | 21.6 | > 100 | 25.4 | > 100 | 30.6 | > 100 | 51 | > 100 | 39.9 | > 100 | 12.4 | 43.4 | 23.4 | > 85.7 | 7.44 | > 100 | 97.5 | > 100 | 11.5 | 42.8
COc1ccc(N=Cc2c(O)ccc3c2oc2cc(Cl)c(O)c(Cl)c23)cc1 | 18.9 | 45.9 | 21 | 56.9 | 14.7 | 43.3 | 20.9 | 61.2 | 12.7 | 33.9 | 14.2 | 31.4 | 3.39 | 17.8 | 19.3 | 63.6 | 11.8 | 25.9 | 5.39 | 34.9
Cc1cc(=O)[nH]c(N/N=C/c2cc(Br)ccc2O)n1 | 1.78 | > 100 | 0.353 | > 100 | 0.257 | 0.706 | 0.53 | > 100 | 0.488 | 20.5 | 3.35 | > 100 | 0.193 | 0.568 | 0.809 | > 100 | 0.488 | > 100 | 0.808 | > 100
O=C(O)/C=C/C(=O)N1Cc2cc3ccccc3nc2C1 |  | > 100 |  | > 100 |  | > 100 |  | > 100 |  | > 100 |  | > 100 |  | > 100 |  | > 100 |  | > 100 |  | > 100
COC1C(CO)OC(n2c3ccccc3c3c4c(c5c6ccccc6[nH]c5c32)C(=O)NC4=O)C(O)C1O (stereo not given) | 0.0439 | 0.572 | 0.016 | 0.146 | 0.0844 | 3.49 | 0.0441 | 0.347 | 0.848 | 6.61 | 0.114 | 0.877 | 0.129 | 0.673 | < 0.0187 | 0.111 | < 0.01 | 0.616 | < 0.01 | 0.141
C[n+]1c(/C=C/c2c[nH]c3ccccc23)ccc2ccccc21 | 10.1 | 22.7 | 4.65 | 22.5 | 11 | 39.4 | 14 | 33.2 | 3.14 | 12.9 | 13.9 | 27.9 | 6.93 | 20.5 | 5.68 | 21 | 4 | 19.4 | 8.75 | 22.5
CSC1=Nc2c(c(C)c(-c3ccccc3)n2CCCN2CCCCC2)C2=NC(=O)C[C@H](C)N12 | 4.01 | > 52.4 | 2.71 | > 44.6 | 2.25 | 13.5 | 3.68 | 16.1 | 3.27 | 12.4 | 2.56 | 10.2 | 2.54 | 9.19 | 2.42 | 20.9 | 2.99 | 18.2 | 2.71 | 17.7
CCCCCCCC/C=C/CCCCCCCC1=NC(C)(C)CN1CC(C)O (stereo not given) | 1.71 | 3.09 | 1.84 | 3.32 | 1.45 | 2.84 | 1.79 | 3.35 | 1.94 | 3.64 | 1.53 | 3.39 | 1.82 | 3.5 | 3.3 | 12.3 | 1.8 | 3.34 | 1.64 | 3.02
CC[C@@H]1[C@@H](C)O[C@@](O)([C@@H](C)[C@H](O)[C@H](C)[C@H]2OC(=O)/C=C/C=C/[C@H](C)[C@@H]([C@@H](C)[C@@H](O)[C@H](C)[C@@]3(O)C[C@@H](O[C@H]4C[C@@H](O)[C@H](O)C(C)O4)[C@H](CC)[C@@H](C)O3)OC(=O)/C=C/C=C/[C@@H]2C)C[C@H]1O[C@@H]1C[C@@H](O)[C@H](O)C(C)O1 (stereo not given in full) | 0.0732 | 0.169 | 0.0688 | 0.165 | 0.0903 | 0.241 | 0.0653 | 0.142 | 0.0569 | 0.115 | 0.0521 | 0.119 | 0.061 | 0.132 | 0.0584 | 0.126 | 0.108 | 0.454 | 0.113 | 0.39
Cc1ccc(Cl)cc1Nc1nc(C(F)(F)F)ccc1C(=O)N/N=C/c1cccnc1 | 3.38 | 9.73 | 2.34 | 14.4 | 4.22 | 15.8 | 1.44 | 3.92 | 2.76 | 11.1 | 1.36 | 7.5 | 1.38 | 4.51 | 4.75 | 21.9 | 3.32 | 14.9 | 2.14 | 11.7
